This is an account of results in patent publication US9695151B2, “3,4-dihydro-2H-isoquinoline-1-one and 2,3-dihydro-isoindol-1-one compounds” (Hoffmann-La Roche Inc., priority 2013, dated 2017).

As a reminder, the EC50 is the concentration needed to bring the measured effect to its halfway point. The low end stands for an effect from little substance, the high end for a need for much substance.

One experiment has as its target CYP11B2 (Homo sapiens (Human), UniProt P19099). Put plainly: G-402 cellular enzyme assay, human CYP11B2 (aldosterone release). The experiment is classed as cell-based. The settings on record: G-402 cells, 1 μM Deoxycorticosterone. An excerpt: (§1) Herein we identified the use of the G-402 cell line as a host cell to ectopically express (transiently or stably) enzymes of the CYP11 family. Specifically we developed stable G-402 cells expressing ectopically human CYP11B1, human CYP11B2, human CYP11A1, cynmolgus CYP11B1 or cynomolgus CYP11B2 enzyme activity. Importantly the identified cell line G-402 expresses co-factors (adrenodoxin and adrenodoxin reductase) important for the activity of the CYP11 family and no relevant enzyme activity of the CYP11 family (in comparison to H295R cells) was detected in these cells. Therefore the G-402 cell line is uniquely suited as a host cell for the ectopic expression of enzymes from the CYP11 family.
(§2) G-402 cells can be obtained from ATCC (CRL-1440) and were originally derived from a renal leiomyoblastoma.
(§3) The expression plasmids contains the ORF for either human/cyno CYP11B1 or CYP11B2 under the control of a suitable promoter (CMV-promoter) and a suitable resistance marker (neomycin). Using standard techniques the expression plasmid is transfected into G-402 cells and these cells are then selected for expressing the given resistance markers. Individual cell-clones are then selected and assessed for displaying the desired enzymatic activity using 11-Deoxycorticosterone (Cyp11B2) or 11-Deoxycortisol (Cyp11B1) as a substrate.
(§4) G-402 cells expressing CYP11 constructs were established as described above and maintained in McCoy's 5a Medium Modified, ATCC Catalog No. 30-2007 containing 10% FCS and 400 μg/ml G418 (Geneticin) at 37° C. under an atmosphere of 5% CO2/95% air. Cellular enzyme assays were performed in DMEM/F12 medium containing 2.5% charcoal treated FCS and appropriate concentration of substrate (0.3-10 uM 11-Deoxycorticosterone, 11-Deoxycortisol or Corticosterone). For assaying enzymatic activity, cells were plated onto 96 well plates and incubated for 16 h. An aliquot of the supernatant is then transferred and analyzed for the concentration of the expected product (Aldosterone for CYP11B2; Cortisol for CYP11B1). The concentrations of these steroids can be determined using HTRF assays from CisBio analyzing either Aldosterone or Cortisol.
(§5) Inhibition of the release of produced steroids can be used as a measure of the respective enzyme inhibition by test compounds added during the cellular enzyme assay. The dose dependent inhibition of enzymatic activity by a compound is calculated by means of plotting added inhibitor concentrations (x-axes) vs. measured steroid/product level (y-axes). The inhibition is then calculated by fitting the following 4-parameter sigmoidal function (Morgan-Mercer-Flodin (MMF) model) to the raw data points using the least squares method:
(§6) [formula] wherein, A is the maximum y value, B is the EC50 factor determined using XLFit, C is the minimum y value and D is the slope value.
(§7) EC50 values for compounds claimed herein were tested with the G402-based assay system described. Cyp11B2 enzyme activity was tested in presence of 1 μM Deoxycorticosterone and variable amounts of inhibitors; Cyp11B1 enzyme activity was tested in presence of 1 μM Deoxycortisol and variable amounts of inhibitors.

The target in a further experiment is human CYP11B1 (Homo sapiens (Human), UniProt P15538). Put plainly: G-402 cellular enzyme assay, human CYP11B1 (cortisol release). The experiment is classed as cell-based. The settings on record: G-402 cells, 1 μM Deoxycortisol.
Description: as §1, §2, §3, §4, §5, §6, §7

A value given as a limit tells only on which side of the number the result lay.

CYP11B2, sequence (P19099 25-503): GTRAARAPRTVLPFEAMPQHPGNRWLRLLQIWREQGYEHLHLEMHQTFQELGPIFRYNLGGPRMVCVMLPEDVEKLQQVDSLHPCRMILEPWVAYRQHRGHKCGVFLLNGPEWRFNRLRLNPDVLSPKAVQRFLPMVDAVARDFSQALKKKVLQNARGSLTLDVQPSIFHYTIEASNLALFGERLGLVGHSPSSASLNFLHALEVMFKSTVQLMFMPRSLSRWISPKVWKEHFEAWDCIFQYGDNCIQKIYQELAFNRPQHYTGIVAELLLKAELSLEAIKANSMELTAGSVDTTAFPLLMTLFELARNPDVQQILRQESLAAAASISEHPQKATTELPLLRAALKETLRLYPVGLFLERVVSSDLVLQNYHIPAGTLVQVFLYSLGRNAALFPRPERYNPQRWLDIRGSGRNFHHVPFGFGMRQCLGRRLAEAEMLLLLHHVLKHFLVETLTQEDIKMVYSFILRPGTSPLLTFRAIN
human CYP11B1, sequence (P15538 25-503): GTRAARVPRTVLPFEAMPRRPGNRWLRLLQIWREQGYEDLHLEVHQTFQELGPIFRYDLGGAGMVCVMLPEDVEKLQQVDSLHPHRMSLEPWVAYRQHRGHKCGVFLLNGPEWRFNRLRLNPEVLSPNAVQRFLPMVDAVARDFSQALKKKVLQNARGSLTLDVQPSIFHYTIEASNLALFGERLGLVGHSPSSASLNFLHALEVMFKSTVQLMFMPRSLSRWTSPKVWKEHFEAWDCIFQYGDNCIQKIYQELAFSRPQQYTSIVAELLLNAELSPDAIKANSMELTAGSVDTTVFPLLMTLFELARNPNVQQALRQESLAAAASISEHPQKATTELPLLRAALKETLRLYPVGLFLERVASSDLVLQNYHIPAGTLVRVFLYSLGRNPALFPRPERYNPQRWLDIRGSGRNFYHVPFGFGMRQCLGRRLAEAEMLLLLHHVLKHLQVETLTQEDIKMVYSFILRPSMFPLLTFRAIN

Regarding `CC(C)S(=O)(=O)N1CCC(N(C)c2cncc(N3C(=O)c4ccc(Cl)cc4C3(C)C)c2)C1` (single isomer, unassigned) [Example 15, 5-Chloro-3,3-dimethyl-2-[5-[methyl-[(3S or 3R)-1-propan-2-ylsulfonylpyrrolidin-3-yl]amino]pyridin-3-yl]isoindol-1-one], the EC50 on CYP11B2 worked out at 1 nM; on human CYP11B1, 732 nM.

On to `CC(C)S(=O)(=O)N1CCC(N(C)c2cncc(N3C(=O)c4ccc(Cl)cc4C3(C)C)c2)C1` (single isomer, unassigned) [Example 16, 5-Chloro-3,3-dimethyl-2-[5-[methyl-[(3R or 3S)-1-propan-2-ylsulfonylpyrrolidin-3-yl]amino]pyridin-3-yl]isoindol-1-one], for which the EC50 at CYP11B2 amounted to 0.5 nM; on human CYP11B1 it was 117 nM.

Consider `CCCS(=O)(=O)N1CCC(N(C)c2cncc(N3C(=O)c4ccc(Cl)cc4C3(C)C)c2)C1` (single isomer, unassigned) [Example 17, 5-Chloro-3,3-dimethyl-2-[5-[methyl-[(3S or 3R)-1-propylsulfonylpyrrolidin-3-yl]amino]pyridin-3-yl]isoindol-1-one], for which the EC50 on CYP11B2 was 1 nM; on human CYP11B1, 129 nM.

As for `CCCS(=O)(=O)N1CCC(N(C)c2cncc(N3C(=O)c4ccc(Cl)cc4C3(C)C)c2)C1` (single isomer, unassigned) [Example 18, 5-Chloro-3,3-dimethyl-2-[5-[methyl-[(3R or 3S)-1-propylsulfonylpyrrolidin-3-yl]amino]pyridin-3-yl]isoindol-1-one], the EC50 on CYP11B2 was determined as 1 nM; at human CYP11B1, 233 nM.

On to `CC1(C)c2cc(Cl)ccc2C(=O)N1c1cncc(NC2CCCN(S(C)(=O)=O)C2)c1` (single isomer, unassigned) [Example 22, 5-Chloro-3,3-dimethyl-2-[5-[[(3R or 3S)-1-methylsulfonylpiperidin-3-yl]amino]pyridin-3-yl]isoindol-1-one], for which the EC50 amounted to 149 nM on CYP11B2 and 27200 nM on human CYP11B1.

Consider `CC1(C)c2cc(Cl)ccc2C(=O)N1c1cncc(NC2CCCN(S(C)(=O)=O)C2)c1` (single isomer, unassigned) [Example 23, 5-Chloro-3,3-dimethyl-2-[5-[[(3S or 3R)-1-methylsulfonylpiperidin-3-yl]amino]pyridin-3-yl]isoindol-1-one], for which the EC50 on CYP11B2 was found to be 1200 nM; at human CYP11B1, 18200 nM.

Consider `CCS(=O)(=O)N1CCCC(Nc2cncc(N3C(=O)c4ccc(Cl)cc4C3(C)C)c2)C1` (single isomer, unassigned) [Example 24, 5-Chloro-2-[5-[[(3R or 3S)-1-ethylsulfonylpiperidin-3-yl]amino]pyridin-3-yl]-3,3-dimethylisoindol-1-one], for which the EC50 at CYP11B2 was 352 nM; at human CYP11B1, 38000 nM.

Take `CCS(=O)(=O)N1CCCC(Nc2cncc(N3C(=O)c4ccc(Cl)cc4C3(C)C)c2)C1` (single isomer, unassigned) [Example 25, 5-Chloro-2-[5-[[(3S or 3R)-1-ethylsulfonylpiperidin-3-yl]amino]pyridin-3-yl]-3,3-dimethylisoindol-1-one]: the EC50 at CYP11B2 was 443 nM; on human CYP11B1, 13900 nM.

Consider `CC(C)S(=O)(=O)N1CCCC(Nc2cncc(N3C(=O)c4ccc(Cl)cc4C3(C)C)c2)C1` (single isomer, unassigned) [Example 26, 5-Chloro-3,3-dimethyl-2-[5-[[(3R or 3S)-1-propan-2-ylsulfonylpiperidin-3-yl]amino]pyridin-3-yl]isoindol-1-one], for which the EC50 was 2360 nM on CYP11B2 and > 30000 nM on human CYP11B1.

`CC(C)S(=O)(=O)N1CCCC(Nc2cncc(N3C(=O)c4ccc(Cl)cc4C3(C)C)c2)C1` (single isomer, unassigned) [Example 27, 5-Chloro-3,3-dimethyl-2-[5-[[(3S or 3R)-1-propan-2-ylsulfonylpiperidin-3-yl]amino]pyridin-3-yl]isoindol-1-one]: the results for the EC50 at CYP11B2 and on human CYP11B1 were 1510 nM and > 30000 nM, respectively.

Regarding `CCC(=O)N1CC(Nc2cncc(N3C(=O)c4ccc(Cl)cc4[C@H]3C)c2)C1` (single isomer, unassigned) [Example 39, (3R or 3S)-5-Chloro-3-methyl-2-[5-[(1-propanoylazetidin-3-yl)amino]-3-pyridyl]isoindolin-1-one], the EC50 at CYP11B2 was 92 nM; on human CYP11B1, 10800 nM.

Regarding `CCC(=O)N1CC(Nc2cncc(N3C(=O)c4ccc(Cl)cc4[C@@H]3C)c2)C1` (single isomer, unassigned) [Example 40, (3S or 3R)-5-Chloro-3-methyl-2-[5-[(1-propanoylazetidin-3-yl)amino]-3-pyridyl]isoindolin-1-one], the EC50 on CYP11B2 came out at 154 nM; at human CYP11B1 it was 4180 nM.

In the case of `CCS(=O)(=O)N1CC(Nc2cncc(N3C(=O)c4ccc(Cl)cc4[C@H]3C)c2)C1` (single isomer, unassigned) [Example 41, (3R or 3S)-5-Chloro-2-[5-[(1-ethylsulfonylazetidin-3-yl)amino]-3-pyridyl]-3-methyl-isoindolin-1-one], the EC50 on CYP11B2 was 39 nM; at human CYP11B1, 10900 nM.

On to `CCS(=O)(=O)N1CC(Nc2cncc(N3C(=O)c4ccc(Cl)cc4[C@@H]3C)c2)C1` (single isomer, unassigned) [Example 42, (3S or 3R)-5-Chloro-2-[5-[(1-ethylsulfonylazetidin-3-yl)amino]-3-pyridyl]-3-methyl-isoindolin-1-one], for which the EC50 at CYP11B2 came out at 12 nM; at human CYP11B1 it was 1070 nM.

In the case of `CC(=O)N1CC(Nc2cncc(N3C(=O)c4ccc(Cl)cc4C3(C)C)c2)C1` [Example 1, 2-[5-[(1-Acetylazetidin-3-yl)amino]pyridin-3-yl]-5-chloro-3,3-dimethylisoindol-1-one], the EC50 on CYP11B2 is 38 nM; at human CYP11B1, 5840 nM.

Regarding `CC(=O)N1CC(N(C)c2cncc(N3C(=O)c4ccc(Cl)cc4C3(C)C)c2)C1` [Example 2, 2-[5-[(1-Acetylazetidin-3-yl)-methylamino]pyridin-3-yl]-5-chloro-3,3-dimethylisoindol-1-one], the values for the EC50 on CYP11B2 and at human CYP11B1 were 12 nM and 552 nM, respectively.

In the case of `CC(=O)N1CCC(Nc2cncc(N3C(=O)c4ccc(Cl)cc4C3(C)C)c2)CC1` [Example 5, 2-[5-[(1-Acetylpiperidin-4-yl)amino]pyridin-3-yl]-5-chloro-3,3-dimethylisoindol-1-one], the EC50 on CYP11B2 turned out to be 31 nM; on human CYP11B1, 2450 nM.

As to `CCS(=O)(=O)N1CCC(Nc2cncc(N3C(=O)c4ccc(Cl)cc4C3(C)C)c2)CC1` [Example 6, 5-Chloro-2-[5-[(1-ethylsulfonylpiperidin-4-yl)amino]pyridin-3-yl]-3,3-dimethylisoindol-1-one], the EC50 at CYP11B2 turned out to be 4 nM; at human CYP11B1, 1540 nM.

For the compound `CCS(=O)(=O)N1CC(Nc2cncc(N3C(=O)c4ccc(Cl)cc4C3(C)C)c2)C1` [Example 7, 5-Chloro-2-[5-[(1-ethylsulfonylazetidin-3-yl)amino]pyridin-3-yl]-3,3-dimethylisoindol-1-one], the EC50 on CYP11B2 was 8 nM; on human CYP11B1, 1640 nM.

`CC1(C)c2cc(Cl)ccc2C(=O)N1c1cncc(NC2CN(S(C)(=O)=O)C2)c1` [Example 8, 5-Chloro-3,3-dimethyl-2-[5-[(1-methylsulfonylazetidin-3-yl)amino]pyridin-3-yl]isoindol-1-one]: the EC50 on CYP11B2 is 17 nM; at human CYP11B1 it was 2800 nM.

Turning to `CCC(=O)N1CC(Nc2cncc(N3C(=O)c4ccc(Cl)cc4C3(C)C)c2)C1` [Example 9, 5-Chloro-3,3-dimethyl-2-[5-[(1-propanoylazetidin-3-yl)amino]pyridin-3-yl]isoindol-1-one], the EC50 turned out to be 10 nM on CYP11B2 and 2560 nM at human CYP11B1.

Take `CCS(=O)(=O)N1CC(N(C)c2cncc(N3C(=O)c4ccc(Cl)cc4C3(C)C)c2)C1` [Example 10, 5-Chloro-2-[5-[(1-ethylsulfonylazetidin-3-yl)-methylamino]pyridin-3-yl]-3,3-dimethylisoindol-1-one]: the EC50 on CYP11B2 came to 0.5 nM; on human CYP11B1, 39 nM.
